Results on 28 molecules are retold here after US7045532B2 (Millennium Pharmaceuticals, Inc., priority 1999, dated 2006).

Like-named read-outs stand apart in the source and are kept apart here.

This test has as its target T1, ACE-2 (Homo sapiens, UniProt Q9BYF1).
T1 construct: a stop codon inserted after the serine immediately preceding the transmembrane domain; made in house; host or cells: CHO K1 cells (transient transfection, purified from conditioned medium)
Nature of the test: ACE-2 Competitive Substrate Assay (ACS Assay). In kind it is biochemical.

The mark [1] stands for this setting: Ki class, compounds tested in 5% DMSO, 12 compound concentrations, Ki=Kiapp/(1+[S]/Km), read-out: Human ACE-2 Activity.
The mark [2] stands for this setting: Ki class, compounds tested in 5% DMSO, 12 concentrations, read-out: Human ACE-2 Activity.
Setting [3] is: Table 3, very good ACE-2 inhibiting compounds, species not given, read-out: ACE-2 Activity, Ki.

T1 sequence (Q9BYF1 18-740 limits assumed): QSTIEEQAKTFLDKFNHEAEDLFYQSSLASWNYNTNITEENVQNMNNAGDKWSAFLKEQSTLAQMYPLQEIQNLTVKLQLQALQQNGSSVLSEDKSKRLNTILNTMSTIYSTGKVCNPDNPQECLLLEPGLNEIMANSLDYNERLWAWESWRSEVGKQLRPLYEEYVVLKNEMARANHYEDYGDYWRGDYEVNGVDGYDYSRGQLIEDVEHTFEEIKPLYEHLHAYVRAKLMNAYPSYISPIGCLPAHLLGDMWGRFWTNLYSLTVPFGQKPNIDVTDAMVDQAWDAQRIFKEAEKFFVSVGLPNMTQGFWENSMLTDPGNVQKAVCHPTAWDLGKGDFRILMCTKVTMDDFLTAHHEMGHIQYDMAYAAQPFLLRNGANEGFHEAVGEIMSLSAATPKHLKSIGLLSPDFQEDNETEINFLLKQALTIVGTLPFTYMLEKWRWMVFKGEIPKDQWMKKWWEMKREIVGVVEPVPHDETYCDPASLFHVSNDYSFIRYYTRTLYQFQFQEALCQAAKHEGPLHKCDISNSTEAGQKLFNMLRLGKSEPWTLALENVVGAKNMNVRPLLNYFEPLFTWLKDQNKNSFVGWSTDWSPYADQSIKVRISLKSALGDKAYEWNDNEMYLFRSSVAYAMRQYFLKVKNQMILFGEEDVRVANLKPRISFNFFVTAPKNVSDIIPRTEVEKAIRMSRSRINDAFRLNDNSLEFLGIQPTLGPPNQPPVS

In the case of `CC(C)CC(N[C@@H](C[C@H]1COC(=O)N1Cc1cc(Cl)cc(Cl)c1)C(=O)O)C(=O)O` (stereo in doubt) [NN, (R,S,S)-2-{1-Carboxy-2-[3-(3,5-dichloro-benzyl)-2-oxo-oxazolidin-4-yl]-ethylamino}-4-methyl-pentanoic acid], the Ki under setting [1] was in the range of 100 to 500 nM.

For the molecule `CC(C)C[C@H](N[C@@H](C/C=C\c1cc(Cl)cc(Cl)c1)C(=O)O)C(=O)O` (stereo in doubt) [PV, 2-(1-Carboxy-3-methyl-butylamino)-5-(3,5-dichloro-phenyl)-pent-4-enoic acid], the Ki (Ki class per key, compounds tested in 5% DMSO, 12 compound concentrations, 25° C., Ki=Kiapp/(1+[S]/Km), read-out: Human ACE-2 Activity) is less than 100 nM.

On to `O=C(O)[C@@H]1C[C@@H](C(=O)O)N1` [A, Azetidine-2,4-dicarboxylic acid], for which the Ki under setting [2] was more than 500 nM.

With `CCOC(=O)C(CCc1ccccc1)N[C@@H](CC(C)C)C(=O)O` (some centres unmarked) [B, 2-(1-Ethoxycarbonyl-3-phenyl-propylamino)-4-methyl-pentanoicacid], the Ki under setting [2] was more than 500 nM.

Consider `CC(C)CC(N[C@@H](CN(Cc1ccccc1)c1ccccc1)C(=O)O)C(=O)O` (some centres unmarked) [GT, 2-[2-(Benzyl-phenyl-amino)-1-carboxy-ethylamino]-4-methyl-pentanoic acid], for which, under setting [2], the Ki is more than 500 nM.

On to `O=C(O)[C@@H]1CCC[C@H](C(=O)O)N1` [H, Pipendine-2,6-dicarboxylic acid], for which the Ki under setting [2] was more than 500 nM.

With `C[C@@H](N[C@@H](CCCNC(=N)N)C(=O)O)C(=O)O` [I, 2-(1-Carboxy-ethylamino)-5-guanidino-pentanoic acid], the Ki under setting [2] is more than 500 nM.

Consider `CC(C)CC(N[C@@H](Cc1cn(Cc2cccc(F)c2F)cn1)C(=O)O)C(=O)O` (some centres unmarked) [IW, 2-[1-Carboxy-2-[1-(2,3-difluoro-benzyl)-1H-imidazol-4-yl]-ethylamino]4-methyl-pentanoic acid], for which the Ki under setting [1] is more than 500 nM.

Turning to `NCCCC[C@@H](C(=O)O)N(CC(=O)O)CC(=O)O` [K, 6-Amino-2-(bis-carboxymethyl-amino)-hexanoic acid], the Ki under setting [2] was more than 500 nM.

Turning to `CC(C)C[C@H](N[C@@H](Cc1csc(-c2cccc(C(F)(F)F)c2)n1)C(=O)O)C(=O)O` [KD, (S,S)-2-{1-Carboxy-2-[2-(3-trifluoromethyl-phenyl)-thiazol-4-yl-]-ethylamino}-4-methyl-pentanoic acid], the Ki under setting [1] is more than 500 nM.

`CC(C)C[C@H](N[C@@H](CCNC(=O)c1ccc2ccccc2c1)C(=O)O)C(=O)O` [KE]: under setting [1], the Ki is more than 500 nM.

For the molecule `CC(C)C[C@H](N[C@@H](CCNS(=O)(=O)c1ccc(-c2ccccc2)cc1)C(=O)O)C(=O)O` [KF, 2-[3-(Biphenyl-4-sulfonylamino)-1-carboxy-propylamino]-4-methyl-pentanoic acid], the Ki under setting [1] is 100 to 500 nM.

As for `CC(C)C[C@H](N[C@@H](Cc1csc(-c2ccc(Cl)cc2Cl)n1)C(=O)O)C(=O)O` [KG, (S,S)-2-{1-Carboxy-2-[2-(2,4-dichloro-phenyl)-thiazol-4-yl-]-ethylamino}-4-methyl-pentanoic acid], the Ki under setting [1] was less than 100 nM and the Ki under setting [3] is 50 to 100 nM.

For the molecule `CC(C)C[C@H](N[C@@H](Cc1csc(-c2ccc3c(c2)CCO3)n1)C(=O)O)C(=O)O` [KI, (S,S)-2-{1-Carboxy-2-[2(2,3-dihydro-benzofaran-5-yl]-thiazol-4-yl]-ethylamino}-4-methyl pentanoic acid], the Ki under setting [1] is less than 100 nM and the Ki under setting [3] lay in the range of 50 to 100 nM.

In the case of `CC(C)C[C@H](N[C@@H](Cc1csc(-c2ccc(F)c(Cl)c2)n1)C(=O)O)C(=O)O` [KJ, (S,S)-2-{1-Carboxy-2-[2-(3-chloro-4-fluoro-phenyl)-thiazol-4-yl-]-ethylamino}-4-methyl-pentanoic acid], the Ki under setting [1] was less than 100 nM and the Ki under setting [3] lay in the range of 50 to 100 nM.

On to `Cc1ccc(-c2nc(C[C@H](N[C@@H](CC(C)C)C(=O)O)C(=O)O)cs2)cc1` [KK, (S,S)-2-[1-Carboxy-2-(2-p-tolyl-thiazol-4-yl)-ethylamino]-4-methyl-pentanoic acid], for which the Ki runs as follows: under setting [1], less than 100 nM; under setting [3], less than 50 nM.

Consider `CC(C)C[C@H](N[C@@H](Cc1cc(-c2ccccc2)on1)C(=O)O)C(=O)O` [KL, 2-[1-Carboxy-2-(5-phenyl-isoxazol-3-yl)-ethylamino]-4-methyl-pentanoic acid], for which the Ki under setting [1] was in the range of 100 to 500 nM.

Take `CC(C)C[C@H](NC(=O)[C@@H](S)Cc1ccccc1)C(=O)O` [KM, 2-(2-Mercapto-3-phenyl-propionylamino)-4-methyl-pentanoic acid]: the Ki under setting [1] was more than 500 nM.

As for `CC(C)C[C@H](N[C@@H](CCNS(=O)(=O)c1ccc(-c2ccc(Cl)cc2)cc1)C(=O)O)C(=O)O` [KN, (S,S)-2-[1-Carboxy-3-(4′-chloro-biphenyl-4-sulfonylamino)-propylamino]-4-methyl-pentanoic acid], the Ki under setting [1] is more than 500 nM.

Regarding `COc1cccc(C(=O)NCC[C@H](N[C@@H](CC(C)C)C(=O)O)C(=O)O)c1` [KO, 2-[1-Carboxy-3-(3-methoxy-benzoylamino)-propylamino]-4-methyl-pentanoic acid], the Ki under setting [1] was more than 500 nM.

Regarding `CC(C)C[C@H](N[C@@H](CCNC(=O)c1cccc(Cl)c1)C(=O)O)C(=O)O` [KP, (S,S)-2-[1-Carboxy-3-(3-chloro-benzoylamino)-propylamino]-4-methyl-pentanoic acid], the Ki under setting [1] is more than 500 nM.

On to `CC(C)C[C@H](N[C@@H](Cc1ccc(OCc2ccccc2)cc1)C(=O)O)C(=O)O` [KQ, S,S-2-[2-(4-Benzyloxy-phenyl)-1-carboxy-ethylamino-]4-methyl-pentanoic acid], for which the Ki under setting [1] fell in the range of 100 to 500 nM.

In the case of `CC(C)C[C@H](N[C@@H](Cc1ccc(OCC2CCCCC2)cc1)C(=O)O)C(=O)O` [KR, S,S-2-[1-Carboxy-2-(4-cyclohexylmethoxy-phenyl)-ethylamino]-4-methyl pentanoic acid], the Ki under setting [1] lay within 100 to 500 nM.

Regarding `CC(C)C[C@H](N[C@@H](Cc1ccc(OCc2cc(Cl)cc(Cl)c2)cc1)C(=O)O)C(=O)O` [KS, 2-[1-Carboxy-2-[4-(3,5-dichloro-benzyloxy)-phenyl]-ethylamino)-4-methyl-pentanoic acid], the Ki is, setting by setting: under setting [1], less than 100 nM; under setting [3], less than 50 nM.

Take `Cc1cc(C)cc(COc2ccc(C[C@H](N[C@@H](CC(C)C)C(=O)O)C(=O)O)cc2)c1` [KT, 2-[1-Carboxy-2-[4-(3,5-dimethyl-benzyloxy)-phenyl]-ethylamino]-4-methyl-pentanoic acid]: the Ki under setting [1] is 100 to 500 nM.

For the molecule `CC(C)C[C@H](N[C@@H](Cn1ccn(Cc2ccc(Cl)c(Cl)c2)c1=O)C(=O)O)C(=O)O` [KU, (S,S) 2-{1-Carboxy-2-[3-(3,4-dichloro-benzyl)-2-oxo-2,3-dihydro-imidazol-1-yl]ethylamino}-4-methyl-pentanoic acid], the Ki is, setting by setting: under setting [1], less than 100 nM; under setting [3], 50 to 100 nM.

Consider `CC(C)C[C@H](N[C@@H](CC(=O)Nc1nc2ccccc2s1)C(=O)O)C(=O)O` [KV, 2-[2-(Benzothiazol-2-ylcarbamoyl)-1-carboxy-ethylamino]-4-methyl-pentanoic acid], for which the Ki was less than 100 nM under setting [1] and less than 50 nM under setting [3].

As for `CC(C)CC(NC(CC(=O)N1CCN(C(c2ccccc2)c2ccc(Cl)cc2)CC1)C(=O)O)C(=O)O` (centres unmarked) [KW, 2-(1-Carboxy-3-[4-[(4-chloro-phenyl)-phenyl-methyl]-piperazin-1-yl]-3-oxo-propylamino)-4-methyl-pentanoic acid], the Ki under setting [1] is more than 500 nM.
